Measurements as given in US20020054880A1, “Anti-inflammatory, tolerogenic and immunoinhibiting properties of carbohydrate binding-peptides” (priority 1992, published 2002).
Like-named read-outs stand apart in the source and are kept apart here.

Experiments:
[1] = target: fetuin (Bos taurus, UniProt P12763)
Excerpt: (§1) The reaction was terminated by removing the mixture from the IODO-GEN tube and the iodinated peptide was purified on a Sephadex G-25 column (1×15 cm equilibrated with PBS).

[2] = target: T1, asialofetuin (Bos taurus, UniProt P12763); settings: ACS2P1-biotin 10 μg/ml; glycoprotein 3 μg/ml; n=3
T1 sequence (P12763 19-359): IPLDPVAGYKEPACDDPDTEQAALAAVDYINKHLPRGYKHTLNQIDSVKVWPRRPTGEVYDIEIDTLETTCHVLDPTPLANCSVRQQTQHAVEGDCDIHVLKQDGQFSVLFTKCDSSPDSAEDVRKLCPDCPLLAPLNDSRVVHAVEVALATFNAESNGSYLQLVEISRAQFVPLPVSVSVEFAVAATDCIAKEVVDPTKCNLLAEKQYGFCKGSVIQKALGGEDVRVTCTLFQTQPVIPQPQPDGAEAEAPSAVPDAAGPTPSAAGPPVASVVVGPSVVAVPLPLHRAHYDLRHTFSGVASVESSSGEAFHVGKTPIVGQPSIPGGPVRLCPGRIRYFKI
Excerpt: as §1

[3] = target: T2, asialoagalactofetuin (Bos taurus, UniProt P12763); settings: ACS2P1-biotin 10 μg/ml; glycoprotein 3 μg/ml; n=3
T2 sequence (P12763 19-359): T1 sequence (P12763 19-359)
Excerpt: as §1

[4] = target: αNeuAc(2-3)βGal(1-3)βGlcNAc-BSA (Bos taurus, UniProt P02769); settings: SLe^c; conjugate 50 μg/mL; 0.1 μg ACS2P1-biotin, 1 hour
Experimental: (§2) Binding assays were carried out essentially as described above using microtiter wells that were coated with 50 μl of BSA glycoconjugate (50 μg/ml) in 50 mM sodium phosphate buffer (pH 6.8) containing 5 mM MgCl2 nd 15 mM NaN3 for 16 hours at 4° C. The solution was removed by aspiration and replaced with 100 μl of 1% BSA in PBS containing 0.05% Tween 20 (PBST) and incubated at room temperature for an additional 2-3 hours. […] After incubating for 1 hour, the binding reaction was stopped by aspirating the solutions and the plate was washed with PBST (4×300 μl). Avidin-peroxidase (100 μl of a 1/3000 dilution of a 1 mg/ml solution in PBST) was added and incubated for an additional 1 hour. After washing the wells as described above, the substrate solution (1 mM ABTS in 5 mM citrate buffer, pH 4.2, containing 0.1% hydrogen peroxide, v/v) was added and the plates were incubated for 30 minutes. Binding assays for each BSA conjugate were done in triplicate and background binding was measured in wells coated with BSA only.

[5] = target: αNeuAc(2-3)βGal(1-4)βGlcNAc-BSA (Bos taurus, UniProt P02769); settings: conjugate 50 μg/mL, 0.1 μg ACS2P1-biotin, 1 hour
Experimental: as §2

[6] = target: αNeuAc(2-3)βGal(1-4)βGlcNAc-BSA (1-3) αFuc (Bos taurus, UniProt P02769); settings: SLe^x; conjugate 50 μg/mL; 0.1 μg ACS2P1-biotin, 1 hour
Experimental: as §2

[7] = target: αNeuAc(2-3)βGal(1-3)βGlcNAc-BSA (1-4) αFuc (Bos taurus, UniProt P02769); settings: SLe^a(C19.9); conjugate 50 μg/mL; 0.1 μg ACS2P1-biotin, 1 hour
Experimental: as §2

[8] = target: PT immobilized in microtiter wells (Bordetella pertussis, UniProt P04978+P04979)
Chain of PT immobilized in microtiter wells (P04978 whole entry, looked up): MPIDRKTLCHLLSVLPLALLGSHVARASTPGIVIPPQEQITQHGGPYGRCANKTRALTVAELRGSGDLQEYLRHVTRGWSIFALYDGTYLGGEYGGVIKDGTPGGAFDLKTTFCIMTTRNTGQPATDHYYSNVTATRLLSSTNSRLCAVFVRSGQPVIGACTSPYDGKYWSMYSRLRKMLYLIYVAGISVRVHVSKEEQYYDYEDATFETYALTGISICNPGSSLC
Chain of PT immobilized in microtiter wells (P04979 whole entry, looked up): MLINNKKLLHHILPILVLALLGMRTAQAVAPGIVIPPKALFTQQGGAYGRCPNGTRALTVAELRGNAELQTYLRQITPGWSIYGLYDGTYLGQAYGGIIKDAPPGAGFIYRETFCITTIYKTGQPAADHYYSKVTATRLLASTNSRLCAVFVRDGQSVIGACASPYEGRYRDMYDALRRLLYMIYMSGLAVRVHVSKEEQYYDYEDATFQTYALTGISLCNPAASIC

Chain of αNeuAc(2-3)βGal(1-4)βGlcNAc-BSA (P02769 25-607): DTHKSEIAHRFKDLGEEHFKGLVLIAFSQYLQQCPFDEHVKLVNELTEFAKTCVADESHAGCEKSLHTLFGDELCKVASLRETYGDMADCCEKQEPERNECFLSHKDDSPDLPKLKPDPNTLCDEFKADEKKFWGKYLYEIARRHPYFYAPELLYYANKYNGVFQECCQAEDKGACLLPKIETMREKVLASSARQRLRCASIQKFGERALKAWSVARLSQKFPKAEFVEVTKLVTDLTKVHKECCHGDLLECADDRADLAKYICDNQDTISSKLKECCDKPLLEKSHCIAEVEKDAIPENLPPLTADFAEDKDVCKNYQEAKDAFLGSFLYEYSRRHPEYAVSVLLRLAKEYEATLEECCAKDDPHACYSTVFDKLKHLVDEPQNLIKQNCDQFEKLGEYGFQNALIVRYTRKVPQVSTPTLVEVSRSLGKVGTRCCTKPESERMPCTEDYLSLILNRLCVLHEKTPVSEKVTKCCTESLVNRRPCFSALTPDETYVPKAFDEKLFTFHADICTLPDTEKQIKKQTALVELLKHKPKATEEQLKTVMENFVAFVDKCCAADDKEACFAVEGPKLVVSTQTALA
Chain of αNeuAc(2-3)βGal(1-4)βGlcNAc-BSA (1-3) αFuc (P02769 25-607): as above
Chain of αNeuAc(2-3)βGal(1-3)βGlcNAc-BSA (P02769 25-607): as above
Chain of αNeuAc(2-3)βGal(1-3)βGlcNAc-BSA (1-4) αFuc (P02769 25-607): as above

Substance: BIOTIN-PQEQITQHGSPYGRC-CO—NH2 [ACS2P1-b]
- direct binding of biotinylated peptide to fetuin, in words [1]: concentration-dependent binding
- reduction of binding of the peptide to fetuin by extensive iodination (IODO-GEN) ([1]; iodinated vs underivatized peptide, 10 μg/ml, n=3): 58±3%
- binding to asialofetuin relative to fetuin [2]: 45±9%
- binding to asialoagalactofetuin relative to fetuin [3]: 93±18%
- % Binding Relative to Fetuin of ACS2P1-b (n = 3) [4]: 70 ± 4%
- % Binding Relative to Fetuin of ACS2P1-b (n = 3) ([5]; SLacNAc (table row r10)): 117 ± 12%
- % Binding Relative to Fetuin of ACS2P1-b (n = 3) ([5]; SLacNAc (table row r12)): 94 ± 2%
- % Binding Relative to Fetuin of ACS2P1-b (n = 3) [6]: 84 ± 3%
- % Binding Relative to Fetuin of ACS2P1-b (n = 3) [7]: 84 ± 14%
- direct binding of biotinylated peptide to PT immobilized in microtiter wells, in words [8]: concentration-dependent binding
